Data from US11407738B2 (Achillion Pharmaceuticals, Inc., priority 2015, dated 2022).

Molecular target: Human Factor D (Homo sapiens (Human), UniProt P00746)
Test: Human Factor D assay
Type: biochemical
Settings: Factor D inhibition, substrate Z-L-Lys-SBzl
Description: Human Factor D (purified from human serum, Complement Technology, Inc.) at 80 nM final concentration is incubated with test compound at various concentrations for 5 min at room temperature in 50 mM Tris, 1M NaCl, pH 7.5. A synthetic substrate Z-L-Lys-SBzl and DTNB (Ellman's reagent) are added to final concentrations of 100 μM each. […] IC50 values are calculated by nonlinear regression of complement Factor D reaction rates as a function of test compound concentration.

Chain of Human Factor D (P00746 26-253): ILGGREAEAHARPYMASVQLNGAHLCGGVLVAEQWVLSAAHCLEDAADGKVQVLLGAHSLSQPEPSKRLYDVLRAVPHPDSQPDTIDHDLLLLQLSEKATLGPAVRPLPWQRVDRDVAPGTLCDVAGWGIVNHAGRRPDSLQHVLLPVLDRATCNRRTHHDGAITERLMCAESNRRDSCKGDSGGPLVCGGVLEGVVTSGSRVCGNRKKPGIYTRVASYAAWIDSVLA

Compound	IC50 (Table 3)	IC50 (Table 4)
CC(=O)c1nn(CC(=O)N2C[C@H](F)C[C@H]2C(=O)Nc2cccc(-c3ccc4c(c3)OC(F)(F)O4)c2F)c2ccc(-c3cnc(C)nc3)cc12 [Compound 528, (2S,4R)-1-(2-(3-Acetyl-5-(2-methylpyrimidin-5-yl)-1H-indazol-1-yl)acetyl)-N-(3-(2,2-difluorobenzo[d][1,3]dioxol-5-yl)-2-fluorophenyl)-4-fluoropyrrolidine-2-carboxamide]	< 1 µM	–
CC(=O)c1nn(CC(=O)N2C[C@H]3C[C@H]3[C@H]2C(=O)Nc2ccn(CC(F)(F)F)n2)c2ccc(-c3cnc(C)nc3)cc12 [Compound 606, (1R,2S,5S)-3-(2-(3-acetyl-5-(2-methylpyrimidin-5-yl)-1H-indazol-1-yl)acetyl)-N-(1-(2,2,2-trifluoroethyl)-1H-pyrazol-3-yl)-3-azabicyclo[3.1.0]hex-ane-2-carboxamide]	–	< 1 µM
CC(=O)c1nn(CC(=O)N2CCC[C@H](CNC(=O)c3cccc(Br)n3)C2)c2ccc(-c3cnc(C)nc3)cc12 [Compound 556, (R)—N-((1-(2-(3-Acetyl-5-(2-methylpyrimidin-5-yl)-1H-indazol-1-yl)acetyl)piperidin-3-yl)methyl)-6-bromopicolinamide]	–	> 10 µM
CC(=O)c1nn(CC(=O)N2C[C@H](F)C[C@H]2c2nnc(-c3cccc(Cl)c3F)[nH]2)c2ccc(-c3cnc(C)nc3)cc12 [Compound 571, 2-(3-acetyl-5-(2-methylpyrimidin-5-yl)-1H-indazol-1-yl)-1-((2S,4R)-2-(5-(3-chloro-2-fluorophenyl)-4H-1,2,4-triazol-3-yl)-4-fluoropyrrolidin-1-yl)ethan-1-one]	–	> 10 µM
CC(=O)c1nn(CC(=O)N2C[C@H](F)C[C@H]2C[S+]([O-])c2cccc(Br)n2)c2ccc(-c3cnc(C)nc3)cc12 (stereo partly drawn) [Compound 604, 2-(3-Acetyl-5-(2-methylpyrimidin-5-yl)-1H-indazol-1-yl)-1-((2S,4R)-2-(((6-bromopyridin-2-yl)sulfinyl)methyl)-4-fluoropyrrolidin-1-yl)ethan-1-one]	–	1 to 10 µM
Cc1cccc(NC(=O)[C@@H]2CCC(F)CCN2C(=O)Cn2cc(C(N)=O)c3cc(-c4cnc5c(c4)CCC5)ccc32)n1 (stereo partly drawn) [Compound 593, 5-(6,7-Dihydro-5H-cyclopenta[b]pyridin-3-yl)-1-(2-((2S)-5-fluoro-2-((6-methylpyridin-2-yl)carbamoyl)azepan-1-yl)-2-oxoethyl)-1H-indole-3-carboxamide]	–	> 10 µM
COCCN(C)CCN1CC(NC(=O)[C@@H]2C[C@@H](F)CN2C(=O)Cn2nc(C(C)=O)c3cc(-c4cnc(C)nc4)ccc32)CC1=O (stereo partly drawn) [Compound 533, (2S,4R)-1-(2-(3-acetyl-5-(2-methylpyrimidin-5-yl)-1H-indazol-1-yl)acetyl)-4-fluoro-N-(1-(2-((2-methoxyethyl)(meth-yl)amino)ethyl)-5-oxopyrrolidine-3-yl)pyrrolidine-2-carboxamide]	–	> 10 µM
CCOP(=O)(OCC)OC[C@@]12C[C@@H]1N(C(=O)Cn1nc(C(C)=O)c3cc(-c4cnc(C)nc4)ccc31)[C@H](C(=O)Nc1cccc(Br)n1)C2 [Compound 581, ((1S,3S,5R)-2-(2-(3-Acetyl-5-(2-methylpyrimidin-5-yl)-1H-indazol-1-yl)acetyl)-3-(6-bromopyridin-2-ylcarbamoyl)-2-azabicyclo[3.1.0]hexan-5-yl)methyl Diethyl Phosphate]	–	1 to 10 µM
CC(=O)c1nn(CC(=O)N2C[C@H](F)C[C@H]2C(=O)NC2CCN(C(=O)c3cc(Cl)c[nH]3)CC2)c2ccc(-c3cnc(C)nc3)cc12 [Compound 532, (2S,4R)-1-(2-(3-acetyl-5-(2-methylpyrimidin-5-yl)-1H-indazol-1-yl)acetyl)-N-(1-(4-chloro-1H-pyrrole-2-carbonyl)piperidin-4-yl)-4-fluoropyrrolidine-2-carboxamide]	–	< 1 µM
CC(=O)c1nn(CC(=O)N2C[C@H](F)C[C@H]2C(=O)Nc2cccc(-c3ccc4c(c3Cl)NCCN4)c2F)c2ccc(-c3cnc(C)nc3)cc12 [Compound 560, (2S,4R)-1-(2-(3-Acetyl-5-(2-methylpyrimidin-5-yl)-1H-indazol-1-yl)acetyl)-N-(3-(5-chloro-1,2,3,4-tetrahydroquinoxalin-6-yl)-2-fluorophenyl)-4-fluoropyrrolidine-2-carboxamide]	–	< 1 µM
CC(=O)c1nn(CC(=O)N2C[C@@](F)(CN=[N+]=[N-])C[C@H]2C(=O)Nc2cccc(Br)n2)c2ccc(-c3cnc(C)nc3)cc12 [Compound 547, (2S,4R)-1-(2-(3-Acetyl-5-(2-methylpyrimidin-5-yl)-1H-indazol-1-yl)acetyl)-4-(azidomethyl)-N-(6-bromopyridin-2-yl)-4-fluoropyrrolidine-2-carboxamide]	–	< 1 µM
Cc1ncc(-c2ccc3c(c2)c(C(=O)CP(=O)(O)O)nn3CC(=O)N2C[C@H](F)C[C@H]2C(=O)Nc2cccc(Br)n2)cn1 [Compound 626, (2-(1-(2-((2S,4R)-2-((6-bromopyridin-2-yl)carbamoyl)-4-fluoropyrrolidin-1-yl)-2-oxoethyl)-5-(2-methylpyrimidin-5-yl)-1H-indazol-3-yl)-2-oxoethyl)phosphonic acid]	–	> 10 µM
CC(=O)c1nn(CC(=O)N2CC=CC[C@H]2C(=O)Nc2cccc(Br)n2)c2ccc(-c3cnc(C)nc3)cc12 [Compound 573, (S)-1-(2-(3-Acetyl-5-(2-methylpyrimidin-5-yl)-1H-indazol-1-yl)acetyl)-N-(6-bromopyridin-2-yl)-1,2,3,6-tetrahydropyridine-2-carboxamide]	–	< 1 µM
Cc1cccc(NC(=O)[C@@H]2CCC(F)CCN2C(=O)Cn2cc(C(N)=O)c3cc(-c4ccc(N)nc4)ccc32)n1 (stereo partly drawn) [Compound 595, 5-(6-Aminopyridin-3-yl)-1-(2-((2S)-5-fluoro-2-((6-methylpyridin-2-yl)carbamoyl)azepan-1-yl)-2-oxoethyl)-1H-indole-3-carboxamide]	–	> 10 µM
CC(=O)c1cn(CC(=O)N[C@H](C(=O)Nc2cccc(-c3ccccc3Cl)c2F)[C@@H](C)O)c2ccc(-c3cnc(C)nc3)cc12 [Compound 500]	< 1 µM	–
CNS(=O)(=O)c1ccc(Cl)c(-c2cccc(NC(=O)[C@@H]3C[C@@H](F)CN3C(=O)Cn3nc(C(C)=O)c4cc(-c5cnc(C)nc5)ccc43)c2F)c1 [Compound 529, (2S,4R)-1-(2-(3-acetyl-5-(2-methylpyrimidin-5-yl)-1H-indazol-1-yl)acetyl)-N-(2′-chloro-2-fluoro-5′-(N-methylsulfamoyl)bi-phenyl-3-yl)-4-fluoropyrrolidine-2-carboxamide]	< 1 µM	–
Cc1cccc(C[C@H](O)[C@@H]2C[C@@H](F)CN2C(=O)Cn2cc(C(N)=O)c3cc(-c4cnc(C)nc4)ccc32)n1 [Compound 559, 1-(2-((2S,4R)-4-Fluoro-2-((S)-1-hydroxy-2-(6-methylpyridin-2-yl)ethyl)pyrrolidin-1-yl)-2-oxoethyl)-5-(2-methylpyrimidin-5-yl)-1H-indole-3-carboxamide]	–	> 10 µM
COc1ccc(-c2ccc3c(c2)c(C(N)=O)cn3CC(=O)N2CCC(F)CC[C@H]2C(=O)Nc2cccc(C)n2)cn1 (stereo partly drawn) [Compound 596, 1-(2-((2S)-5-Fluoro-2-((6-methylpyridin-2-yl)carbamoyl)azepan-1-yl)-2-oxoethyl)-5-(6-methoxypyridin-3-yl)-1H-indole-3-carboxamide]	–	> 10 µM
CC(=O)c1nn(CC(=O)N2C[C@H](F)C[C@@H]2c2nc3nc(Br)ccc3[nH]2)c2ccc(-c3cnc(C)nc3)cc12 [Compound 565, 2-(3-Acetyl-5-(2-methylpyrimidin-5-yl)-1H-indazol-1-yl)-1-((2R,4R)-2-(5-bromo-1H-imidazo[4,5-b]pyridin-2-yl)-4-fluoropyrrolidin-1-yl)ethan-1-one]	–	> 10 µM
CC(=O)c1nn(CC(=O)N2C[C@H](F)C[C@H]2C(=O)OCc2cccc(Cl)c2F)c2ccc(-c3cnc(C)nc3)cc12 [Compound 515, 3-Chloro-2-fluorobenzyl (2S,4R)-1-(2-(3-acetyl-5-(2-methylpyrimidin-5-yl)-1H-indazol-1-yl)acetyl)-4-fluoropyrrolidine-2-carboxylate]	1 to 10 µM	–
CC(=O)c1nn(CC(=O)N2C[C@H](F)C[C@H]2CC(=O)NC#N)c2ccc(-c3cnc(C)nc3)cc12 [Compound 579, 2-((2R,4R)-1-(2-(3-Acetyl-5-(2-methylpyrimidin-5-yl)-1H-indazol-1-yl)acetyl)-4-fluoropyrrolidin-2-yl)-N-cyanoacetamide]	–	> 10 µM
CC(=O)c1nn(CC(=O)N2C[C@H](F)C[C@H]2C(=O)Nc2cccc(-c3ccc4scnc4c3)c2F)c2ccc(-c3cnc4cc(C)nn4c3)cc12 [Compound 519, (2S,4R)-1-(2-(3-acetyl-5-(2-methylpyrazolo[1,5-a]pyrimidin-6-yl)-1H-indazol-1-yl)acetyl)-N-(3-(benzo[d]thiazol-5-yl)-2-fluorophenyl)-4-fluoropyrrolidine-2-carboxamide]	< 1 µM	–
Cc1cccc(C[C@@H](O)[C@H]2C[C@@H](F)CN2C(=O)Cn2cc(C(N)=O)c3cc(-c4cnc5cc(C)nn5c4)ccc32)n1 [Compound 611, 1-(2-((2R,4R)-4-Fluoro-2-((R)-1-hydroxy-2-(6-methylpyridin-2-yl)ethyl)pyrrolidin-1-yl)-2-oxoethyl)-5-(2-methylpyrazolo [1,5-a]pyrimidin-6-yl)-1H-indole-3-carboxamide]	–	> 10 µM
CC(=O)c1nn(CC(=O)N2C[C@H](F)C[C@H]2c2nc3nc(Br)ccc3[nH]2)c2ccc(-c3cnc(C)nc3)cc12 [Compound 564, 2-(3-Acetyl-5-(2-methylpyrimidin-5-yl)-1H-indazol-1-yl)-1-((2S,4R)-2-(5-bromo-1H-imidazo[4,5-b]pyridin-2-yl)-4-fluoropyrrolidin-1-yl)ethan-1-one]	–	> 10 µM
CC(=O)c1nn(CC(=O)N2C[C@H](F)C[C@H]2C(=S)NCc2cccc(Cl)c2F)c2ccc(-c3cnc(C)nc3)cc12 [Compound 517, (2S,4R)-1-(2-(3-Acetyl-5-(2-methylpyrimidin-5-yl)-1H-indazol-1-yl)acetyl)-N-(3-chloro-2-fluorobenzyl)-4-fluoropyrrolidine-2-carbothioamide]	< 1 µM	–
